Assay results as given in patent US20260158011A1 (Achieve Life Sciences, Inc., priority 2023, published 2026).
Where “and” joins values, the source holds several entries; their conditions need not be identical. Identical values can stand only once. Like-named read-outs stand apart in the source and are kept apart here.

Test system: adult e-cigarette users
Conditions: for Relative Risk, vaping cessation Week 9 to 12: Row 1 (X = 0) over Row 2 (X = 1); for Common Relative Risk, Logit / Common Relative Risk, Mantel-Haenszel: X = 0 over X = 1, controlling for S; for Relative Risk, Logit / Relative Risk, Mantel-Haenszel: X = 0 over X = 1, no stratifier
Protocol: This Example describes a Phase 2 ORCA-V1 trial evaluated 160 adult e-cigarette users at 5 clinical trial locations in the United States. […] ORCA-V1 participants were randomized to receive 3 mg cytisinicline three times daily or placebo for 12 weeks in combination with standard cessation behavioral support. The dose and administration of cytisinicline in the ORCA-V1 study is identical to that used in the Phase 3 registrational trials for smoking cessation.
ORCA-V1 evaluated the efficacy and safety of 3 mg cytisinicline dosed three times daily for 12 weeks compared to placebo in 160 adult users of e-cigarettes or nicotine vapes. All participants received behavioral support for nicotine cessation.
Subjects were stratified on whether they have smoked >100 cigarettes in their lifetime (yes vs no) (FIG. 57). […] Missing data may be assumed as reported vaping.
Key inclusion criteria consisted of daily electronic cigarette usage (age ≥18 years): willing to bring e-cigarette or nicotine device used to clinical site and document specific product type, flavor, and nicotine level. Individuals were required to test positive for cotinine using the Alere iScreen® Oral Fluid Screening Device (Positive testing at 30 ng/mL cotinine level). Individuals required to be willing to set quit date within 7-14 days of after randomization and to participate in vaping cessation behavioral support provided throughout the study.
Key exclusion criteria included those currently smoking, or having smoked within 4 weeks prior to study randomization, and those with Expired Carbon Monoxide (CO) levels ≥10 ppm, indicating recent combustible tobacco use (i.e., no dual users). Those with clinically abnormal laboratory values were also excluded, as well as those with positive urinary screen for illicit drugs (THC not included in screen). Those with uncontrolled hypertension (BP 160/100 mmHg), abnormal ECG, or recent acute myocardial infarction, stroke, or heart failure admission in past 3 months were excluded. Psychiatric exclusions included (1) schizophrenia or bipolar disorder, (2) current moderate to severe depression symptoms, (3) high risk of suicide ideation. Pregnant or breast-feeding women or unwilling to use acceptable methods of birth control during the study were also excluded.
The first measurement consisted of biochemically verified continuous vaping abstinence during the last 4 weeks of treatment after 12 weeks of cytisinicline treatment vs placebo. Vaping abstinence during weeks 9-12 was verified with no reported vaping with weekly saliva cotinine levels <10 ng/mL.
A second measurement consisted of biochemically verified continuous vaping abstinence at any time during treatment, with vaping abstinence at Week 3-6 or Week 6-9 for of cytisinicline treatment vs placebo. 7-day point prevalence rates were compared for vaping abstinence (Week 2 to 12) (FIG. 62). An additional measurement included reduction in daily vaping as measured by cotinine, where cytisinicline treatment vs placebo for a reduction in nicotine vaping using weekly quantitative cotinine levels from Week 2 to Week 12. Safety was assessed by adverse effects and serious adverse effects, considering number, severity, and attribution to study drug.

[1] = 3 mg cytisinicline TID 12 weeks
[2] = All Randomized Set, Cytisinicline 12 Weeks N = 107, saliva cotinine <10 ng/mL
[3] = X = 1, Table of X by Y, all randomized, 107 subjects in row
[4] = X = 1, stratum S = 0 (>100 cigarettes = No), 30 subjects in row
[5] = X = 1, stratum S = 1 (>100 cigarettes = Yes), 77 subjects in row
[6] = share of all N = 107 of the arm
[7] = vs placebo, no stratifier, N=160, vaping cessation Week 9 to 12

## O=c1cccc2n1C[C@@H]1CNC[C@H]2C1 [cytisine, (−)-Cytisine]
[1]
  Odds ratio versus placebo, vaping cessation weeks 9-12, primary analysis with prospective stratification factor: 2.6 and 2.64
  Odds ratio versus placebo, vaping cessation weeks 9-12, site as a stratification factor: 3.03
  Odds ratio versus placebo, vaping cessation weeks 9-12, without any stratification factor: 2.62
3 mg cytisinicline TID 12 weeks, saliva cotinine <10 ng/mL
  Vaping cessation rate during weeks 9-12: 31.8%
12 Weeks arm N = 107, All Randomized Set
  Continuous Vaping Abstinence Week 9 to Week 16, n (%): 25 (23.4) n (%)
[2]
  Vaping Cessation from Week 3 to Week 6, percent of subjects: 24.3%
  Vaping Cessation from Week 6 to Week 9, percent of subjects: 30.8%
All Randomized Set, Cytisinicline 12 wks N = 107, saliva cotinine <10 ng/mL
  Vaping Cessation From Week 9 to Week 12, percent of subjects: 31.8%
Week 2, 12 Weeks arm N = 107, All Randomized Set
  7-Day Point Prevalence Abstinence, n (%): 15 (14.0) n (%)
Week 2, vs placebo (N = 53)
  7-Day Point Prevalence Abstinence, Difference in Proportions: 0.06
  7-Day Point Prevalence Abstinence, Odds Ratio: 2.00
Week 3, 12 Weeks arm N = 107, All Randomized Set
  7-Day Point Prevalence Abstinence, n (%): 36 (33.6) n (%)
Week 3, vs placebo (N = 53)
  7-Day Point Prevalence Abstinence, Difference in Proportions: 0.11
  7-Day Point Prevalence Abstinence, Odds Ratio: 1.73
Week 4, 12 Weeks arm N = 107, All Randomized Set
  7-Day Point Prevalence Abstinence, n (%): 53 (49.5) n (%)
Week 4, vs placebo (N = 53)
  7-Day Point Prevalence Abstinence, Difference in Proportions: 0.25
  7-Day Point Prevalence Abstinence, Odds Ratio: 3.02
Week 5, 12 Weeks arm N = 107, All Randomized Set
  7-Day Point Prevalence Abstinence, n (%): 45 (42.1) n (%)
Week 5, vs placebo (N = 53)
  7-Day Point Prevalence Abstinence, Difference in Proportions: 0.14
  7-Day Point Prevalence Abstinence, Odds Ratio: 1.84
Week 6, 12 Weeks arm N = 107, All Randomized Set
  7-Day Point Prevalence Abstinence, n (%): 44 (41.1) n (%)
Week 6, vs placebo (N = 53)
  7-Day Point Prevalence Abstinence, Difference in Proportions: 0.17
  7-Day Point Prevalence Abstinence, Odds Ratio: 2.15
Week 7, 12 Weeks arm N = 107, All Randomized Set
  7-Day Point Prevalence Abstinence, n (%): 52 (48.6) n (%)
Week 7, vs placebo (N = 53)
  7-Day Point Prevalence Abstinence, Difference in Proportions: 0.26
  7-Day Point Prevalence Abstinence, Odds Ratio: 3.23
Week 8, 12 Weeks arm N = 107, All Randomized Set
  7-Day Point Prevalence Abstinence, n (%): 46 (43.0) n (%)
Week 8, vs placebo (N = 53)
  7-Day Point Prevalence Abstinence, Difference in Proportions: 0.18
  7-Day Point Prevalence Abstinence, Odds Ratio: 2.32
Week 9, 12 Weeks arm N = 107, All Randomized Set
  7-Day Point Prevalence Abstinence, n (%): 45 (42.1) n (%)
Week 9, vs placebo (N = 53)
  7-Day Point Prevalence Abstinence, Difference in Proportions: 0.18
  7-Day Point Prevalence Abstinence, Odds Ratio: 2.23
Week 10, 12 Weeks arm N = 107, All Randomized Set
  7-Day Point Prevalence Abstinence, n (%): 44 (41.1) n (%)
Week 10, vs placebo (N = 53)
  7-Day Point Prevalence Abstinence, Difference in Proportions: 0.13
  7-Day Point Prevalence Abstinence, Odds Ratio: 1.77
Week 11, 12 Weeks arm N = 107, All Randomized Set
  7-Day Point Prevalence Abstinence, n (%): 40 (37.4) n (%)
Week 11, vs placebo (N = 53)
  7-Day Point Prevalence Abstinence, Difference in Proportions: 0.13
  7-Day Point Prevalence Abstinence, Odds Ratio: 1.84
Week 12, 12 Weeks arm N = 107, All Randomized Set
  7-Day Point Prevalence Abstinence, n (%): 41 (38.3) n (%)
Week 12, vs placebo (N = 53)
  7-Day Point Prevalence Abstinence, Difference in Proportions: 0.16
  7-Day Point Prevalence Abstinence, Odds Ratio: 2.12
X = 1, Table of X by Y, all randomized
  Vaping cessation Week 9 to 12, Row Pct Y = 0 (failure): 68.22 Pct
[3]
  Vaping cessation Week 9 to 12, Frequency Y = 0 (failure): 73
  Vaping cessation Week 9 to 12, Row Pct Y = 1 (success): 31.78 Pct
X = 1, stratum S = 0 (>100 cigarettes = No)
  Vaping cessation Week 9 to 12, Row Pct Y = 0 (failure): 63.33 Pct
[4]
  Vaping cessation Week 9 to 12, Frequency Y = 0 (failure): 19
  Vaping cessation Week 9 to 12, Row Pct Y = 1 (success): 36.67 Pct
X = 1, stratum S = 1 (>100 cigarettes = Yes)
  Vaping cessation Week 9 to 12, Row Pct Y = 0 (failure): 70.13 Pct
[5]
  Vaping cessation Week 9 to 12, Frequency Y = 0 (failure): 54
  Vaping cessation Week 9 to 12, Row Pct Y = 1 (success): 29.87 Pct
Y = 0 (failure of vaping cessation Week 9 to 12), X = 1, N=160
  Column 1 Risk Estimates, Risk, Row 2: 0.6822
Y = 0 (failure), stratum S = 0, N=45
  Relative Risk, vaping cessation Week 9 to 12: 1.2632
Y = 0 (failure), stratum S = 1, N=115
  Relative Risk, vaping cessation Week 9 to 12: 1.2383
Y = 0 (failure), N=160
  Common Relative Risk, Logit: 1.2435
  Common Relative Risk, Mantel-Haenszel: 1.2448
  Relative Risk, Logit: 1.2445
  Relative Risk, Mantel-Haenszel: 1.2445
Y = 1 (success), stratum S = 0, N=45
  Relative Risk, vaping cessation Week 9 to 12: 0.5455
Y = 1 (success), stratum S = 1, N=115
  Relative Risk, vaping cessation Week 9 to 12: 0.4405
Y = 1 (success), X = 0 minus X = 1, N=160
  Column 2 Risk Difference (Row 1-Row 2): −0.1668
Y = 1 (success), N=160
  Common Relative Risk, Logit: 0.4784
  Common Relative Risk, Mantel-Haenszel: 0.4747
  Relative Risk, Logit: 0.4750
  Relative Risk, Mantel-Haenszel: 0.4750
Y = 1 (vaping cessation Week 9 to 12), X = 1, N=160
  Column 2 Risk Estimates, Risk, Row 2: 0.3178
Placebo group as reference
  Difference in Proportions, Vaping Cessation from Week 3 to Week 6: 0.09
  Difference in Proportions, Vaping Cessation from Week 6 to Week 9: 0.14
  Odds Ratio, Vaping Cessation from Week 3 to Week 6: 1.81
  Odds Ratio, Vaping Cessation from Week 6 to Week 9: 2.18
Placebo group as reference, All Randomized Set
  Marginal Difference in Proportions, Vaping Cessation from Week 9 to Week 12: 0.17
[6]
  Vaping Cessation From Week 9 to Week 12, value in parentheses, >100 Cigarettes smoke in Lifetime = No: 10.3
  Vaping Cessation From Week 9 to Week 12, value in parentheses, >100 Cigarettes smoke in Lifetime = Yes: 21.5
Stratum S = 0 (N=45; 30 on cytisinicline), Frequency X = 1, Y = 1 in FREQ table
  Vaping Cessation From Week 9 to Week 12, number of subjects, >100 Cigarettes smoke in Lifetime = No: 11
Stratum S = 1 (N=115; 77 on cytisinicline), Frequency X = 1, Y = 1 in FREQ table
  Vaping Cessation From Week 9 to Week 12, number of subjects, >100 Cigarettes smoke in Lifetime = Yes: 23
Vs placebo (N = 53)
  Continuous Vaping Abstinence Week 9 to Week 16, Difference in Proportions: 0.10
  Continuous Vaping Abstinence Week 9 to Week 16, Odds Ratio: 2.00
Vs placebo, controlling for S (>100 Cigarettes Smoked in Lifetime no, yes), N=160, listed as Cytisinicline
  Common Odds Ratio (Mantel-Haenszel), vaping cessation Week 9 to 12: 2.6375 and 2.64
Vs placebo, controlling for S, N=160
  Common Odds Ratio (Logit), vaping cessation Week 9 to 12: 2.6304
[7]
  Common Odds Ratio (Logit), summary statistics for X by Y: 2.6199
  Common Odds Ratio (Mantel-Haenszel), summary statistics for X by Y: 2.6199
Vs placebo, stratum S = 0 (>100 cigarettes = No), N=45
  Odds Ratio, vaping cessation Week 9 to 12: 2.3158
Vs placebo, stratum S = 1 (>100 cigarettes = Yes), N=115
  Odds Ratio, vaping cessation Week 9 to 12: 2.8111
